Like-named read-outs stand apart in the source and are kept apart here. Square brackets hold non-standard residues; d marks the D form. Peptide text beside a SMILES is read from it.
Experiments:
S2 cells = settings: 24 hours
Experimental: TUNEL assay was used to measure apoptosis in S2 cells treated with WT-blocked, mutant-blocked or WT-unblocked (D-Arg)9-p19^ARF 26-44 peptides. (D-Arg)9-p19^ARF 26-44 peptide treatment of cells was performed in 8-well chamber slides for TUNEL staining. On Day 0, 20,000 cells per well were seeded in the 8-well chamber slides. On Day 1, slides were replenished with fresh media containing one of the following concentrations of either WT-blocked, mutant-blocked or WT-unblocked (D-Arg)9-p19^ARF 26-44 peptides: 10, 15, 25, 30, 40 and 70 μM for 24 hours. On Day 2, TUNEL staining was performed following the manufacture's protocol (ApopTag® Fluorescein In Situ Apoptosis Detection Kit from CHEMICON® International, S7110). The percent of apoptosis of S2 cells (±SD) was measured by counting the number of TUNEL-positive cells (green fluorescence) per 1,000 nuclei as visualized by DAPI (blue fluorescence) counterstaining. The experiment was repeated in a second experiment using the same protocol. Statistical analysis and EC50 calculation were performed using GraphPad Prism software.

[1] = test system: p53 null thymic lymphoma cell lines L1 and L2; assay: In vitro peptide treatment of p53 null thymic lymphoma cells (viability, TUNEL); assay type: cell-based, mouse; settings: one day after treatment
[2] = test system: p53 null thymic lymphoma cells; assay: Kidney colonization of intravenously injected p53 null thymic lymphoma cells in SCID mice; assay type: in vivo, mouse; settings: 2.5 mg/kg intraperitoneal every other day, 10 injections
Experimental: (§1) These experiments were performed to determine if modifying the termini conferred any advantages on these peptides when administered to an animal. Both wild type ARF 26-44 (rrrrrrrrrKFVRSRRPRTASCALAFVN) (SEQ ID NO 10) and mutant ARF 37-44 (rrrrrrrrrSCALAFVN) (SEQ ID NO 21) peptides were synthesized by Genemed Synthesis Inc. (San Antonio, Tex.). The N-terminus of each peptide was fused with nine D-Arg(r) residues. Both wild type and mutant peptides were blocked with amidation on C-terminus and acetylation on N-terminus. For sarcoma cells, mice were treated with 5 mg/kg body weight of peptide every other day for 10 times. For lymphoma cells, mice were treated with 2.5 mg/kg body weight of peptide every other day for 10 times.
To test the therapeutic effect of the ARF-peptide on p53 null tumors in vivo, p53 null lymphoma/sarcoma cells were introduced into the circulation of SCID mice through intravenous injection. ICR SCID mice were obtained from Taconic Farms (Germantown, N.Y.). Both p53 null sarcoma and lymphoma cells were stably transduced before injection with lentivirus carrying a gene conferring luciferase expression. Specifically, cells were stably transduced with pFU-L2G luciferase construct obtained from Sanjiv Sam Gambhir (M. D., Ph.D) of Stanford University as optimized by Dr. Huiping Liu (Liu et al., Proc Natl Acad Sci USA, 107: 18115-18120). This construct enabled expression of both the bioluminescence and green fluorescence protein. eGFP positive cells were sorted by Beckman Coulter MoFlo. 3×10^6 cells were suspended in cold PBS and injected through the tail vein of SCID mice. Live animal imaging was performed using an IVIS Spectrum optical imaging machine (Caliper Life Sciences, Alameda, Calif.). […] Mice were randomized into three groups and were treated with PBS, mutant-peptide or the wild type ARF-peptide for 10 injections every other day by intraperitoneal injection. […] The mice were sacrificed and lung sections were analyzed for tumor colonies. […] For the p53 null thymic lymphoma cells, metastatic growth in kidney was observed, consistent with murine thymic lymphoma cells having a tendency to colonize kidney, liver and spleen (Aoudjit et al., 1998, Blood, 91: 623-629).

p53 null sarcoma cells [3] = assay: Lung colonization of intravenously injected p53 null sarcoma cells in SCID mice; assay type: in vivo, mouse; settings: 5 mg/kg intraperitoneal every other day, 10 injections
Experimental: as §1
To test the therapeutic effect of the ARF-peptide on p53 null tumors in vivo, p53 null lymphoma/sarcoma cells were introduced into the circulation of SCID mice through intravenous injection. ICR SCID mice were obtained from Taconic Farms (Germantown, N.Y.). Both p53 null sarcoma and lymphoma cells were stably transduced before injection with lentivirus carrying a gene conferring luciferase expression. Specifically, cells were stably transduced with pFU-L2G luciferase construct obtained from Sanjiv Sam Gambhir (M. D., Ph.D) of Stanford University as optimized by Dr. Huiping Liu (Liu et al., Proc Natl Acad Sci USA, 107: 18115-18120). This construct enabled expression of both the bioluminescence and green fluorescence protein. eGFP positive cells were sorted by Beckman Coulter MoFlo. 3×10^6 cells were suspended in cold PBS and injected through the tail vein of SCID mice. Live animal imaging was performed using an IVIS Spectrum optical imaging machine (Caliper Life Sciences, Alameda, Calif.). […] Mice were randomized into three groups and were treated with PBS, mutant-peptide or the wild type ARF-peptide for 10 injections every other day by intraperitoneal injection. […] The mice were sacrificed and lung sections were analyzed for tumor colonies. […]

p53 null sarcoma cells [4] = assay: In vitro peptide treatment of p53 null sarcoma cells (viability, TUNEL); assay type: cell-based, mouse; settings: 24 hours

## CC(=O)N[C@H](CCCNC(=N)N)C(=O)N[C@H](CCCNC(=N)N)C(=O)N[C@H](CCCNC(=N)N)C(=O)N[C@H](CCCNC(=N)N)C(=O)N[C@H](CCCNC(=N)N)C(=O)N[C@H](CCCNC(=N)N)C(=O)N[C@H](CCCNC(=N)N)C(=O)N[C@H](CCCNC(=N)N)C(=O)N[C@H](CCCNC(=N)N)C(=O)N[C@@H](CCCCN)C(=O)N[C@@H](Cc1ccccc1)C(=O)N[C@H](C(=O)N[C@@H](CCCNC(=N)N)C(=O)N[C@@H](CO)C(=O)N[C@@H](CCCNC(=N)N)C(=O)N[C@@H](CCCNC(=N)N)C(=O)N1CCC[C@H]1C(=O)N[C@@H](CCCNC(=N)N)C(=O)N[C@H](C(=O)N[C@@H](C)C(=O)N[C@@H](CO)C(=O)N[C@@H](CS)C(=O)N[C@@H](C)C(=O)N[C@@H](CC(C)C)C(=O)N[C@@H](C)C(=O)N[C@@H](Cc1ccccc1)C(=O)N[C@H](C(=O)N[C@@H](CC(N)=O)C(N)=O)C(C)C)[C@@H](C)O)C(C)C [WT Blocked, rrrrrrrrrKFVRSRRPRTASCALAFVN] (Ac-[dR][dR][dR][dR][dR][dR][dR][dR][dR]KFVRSRRPRTASCALAFVN-NH2)
S2 cells; Experiment 1, 10 μM/Well
  % of TUNEL Positive S2 Cells, Mean: 0.46%
S2 cells; Experiment 1, 25 μM/Well
  % of TUNEL Positive S2 Cells, Mean: 20.27%
S2 cells; Experiment 1, 30 μM/Well
  % of TUNEL Positive S2 Cells, Mean: 57.78%
S2 cells; Experiment 1, 40 μM/Well
  % of TUNEL Positive S2 Cells, Mean: 98.48%
S2 cells; Experiment 2, 10 μM/Well
  % of TUNEL Positive S2 Cells, Mean: 12.91%
S2 cells; Experiment 2, 15 μM/Well
  % of TUNEL Positive S2 Cells, Mean: 13.6%
S2 cells; Experiment 2, 25 μM/Well
  % of TUNEL Positive S2 Cells, Mean: 39.48%
S2 cells; Experiment 2, 30 μM/Well
  % of TUNEL Positive S2 Cells, Mean: 47.52%
S2 cells; Experiment 2, 40 μM/Well
  % of TUNEL Positive S2 Cells, Mean: 70.17%
S2 cells; S2 cells, 10-70 μM
  Apoptosis induction compared between peptides (TUNEL): induced significantly higher apoptosis compared to WT-unblocked and mutant-blocked
[1]
  Apoptosis of cells after peptide treatment: underwent apoptosis
  Number of viable cells versus mutant-peptide or PBS: much less
[2]
  Kidney tumor mass at sacrifice: retained their original size and structure, with only a small white mass beginning to build up on the surface of the kidney
[2]; around 20 days after inoculation
  Luciferase signal from colonized lymphoma cells: emitted very little fluorescence
p53 null sarcoma cells [3]
  Number of lung tumor colonies larger than 100 μm×100 μm: A reduced number of tumor colonies
  Tumors on the surface of the lungs: fewer tumors were observed on the surface of the lungs
p53 null sarcoma cells [3]; 20 days after inoculation
  Luciferase signal from mice: significantly reduced
p53 null sarcoma cells [4]
  Viability and apoptosis (TUNEL) after peptide treatment: A similar effect was observed in p53 null sarcoma cells

Source: US8906860B2, “Methods and compositions inhibiting tumor cell proliferation” (The Board of Trustees of the University of Illinois, priority 2011, dated 2014)
